Data on 4 compounds can be found in patent US6737383B1, “Herbicidal oxadiazolidines” (priority 1999, dated 2004).

For experiment [1], the system named is barnyardgrass. Nature of the experiment: Test A barnyardgrass. The format is in vivo, Echinochloa crus-galli. As to conditions: 0 to 10 scale where 0 is no effect and 10 is complete control. Here is the method:
(§1) Seeds of barnyardgrass (Echinochloa crus-galli), crabgrass (Digitaria spp.), morningglory (Ipomoea spp.), and velvetleaf (Abutilon theophrasti) were planted into a sandy loam soil and treated preemergence by soil drench with test chemicals formulated in a non-phytotoxic solvent mixture which includes a surfactant At the same time, these crop and weed species were also treated postemergence sprayed to runoff, with test chemicals formulated in the same manner.
(§2) Plants ranged in height from two to eighteen cm and were in the one to two leaf stage for the postemergence treatment. Treated plants and untreated controls were maintained in a greenhouse for approximately eleven days, after which all treated plants were compared to untreated controls and visually evaluated for injury. Plant response ratings, summarized in Table A, are based on a 0 to 10 scale where 0 is no effect and 10 is complete control.

In another experiment the test system is crabgrass. Nature of the experiment: Test A crabgrass. The format is in vivo, Digitaria spp. As to conditions: 0 to 10 scale where 0 is no effect and 10 is complete control. In a few lines: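 Visual injury score, 0 (no effect) to 10 (complete control), vs untreated controls at ~11 d in greenhouse. Pre: soil drench on sandy loam. Post: spray to runoff, 1–2 leaf stage.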

The test system of a further experiment is velvetleaf. Nature of the experiment: Test A velvetleaf. It is filed as in vivo, Abutilon theophrasti. As to conditions: 0 to 10 scale where 0 is no effect and 10 is complete control. As to the method: as §1, §2
For a further experiment, the system named is arrowleaf sida. As to the kind of experiment: Test C postemergence arrowleaf sida. The format is in vivo, Sida rhombifolia. As to conditions: 0 to 100 scale, 0 no effect, 100 complete control. As to the method: (§3) Compounds evaluated in this test were formulated in a non-phytotoxic solvent mixture which included a surfactant and applied to plants that were grown for various periods of time before treatment (postemergence application). A mixture of sandy loam soil and greenhouse potting mix in a 60:40 ratio was used for the postemergence test.
(§4) Plantings of these crops and weed species were adjusted to produce plants of appropriate size for the postemergence test. All plant species were grown using normal greenhouse practices. Crop and weed species include arrowleaf sida (Sida rhombifolia), barnyardgrass (Echinochloa crus-galli), cocklebur (Xanthium strumarium), common ragweed (Ambrosia elatior), corn (Zea mays), cotton (Gossypium hirsutum), eastern black nightshade (Solanum ptycanthum), fall panicum (Panicum dichotomiflorum), field bindweed (Convolvulus arvensis), giant foxtail (Setaria faberii), hairy beggarticks (Bidens pilosa), ivyleaf morningglory (Ipomoea hederacea), johnsongrass (Sorghum halepense), ladysthumb smartweed (Polygonum persicaria), lambsquarters (Chenopodium album), large crabgrass (Digitaria sanguinalis), purple nutsedge (Cyperus rotundus), redroot pigweed (Amaranthus retroflexus), soybean (Glycine max), surinam grass (Brachiaria decumbens), velvetleaf (Abutilon theophrasti) and wild poinsettia (Euphorbia heterophylla).
(§5) Treated plants and untreated controls were maintained in a greenhouse for approximately 14, to 21 days, after which all treated plants were compared to untreated controls and visually evaluated. Plant response ratings, summarized in Table C, were based upon a 0 to 100 scale where 0 was no effect and 100 was complete control. A dash response (−) means no test result.

Experiment [2] concerns barnyardgrass. Nature of the experiment: Test C postemergence barnyardgrass. It is filed as in vivo, Echinochloa crus-galli. As to conditions: 0 to 100 scale, 0 no effect, 100 complete control. Here is the method: as §3, §4, §5
A further experiment concerns cocklebur. As to the kind of experiment: Test C postemergence cocklebur. As to conditions: 0 to 100 scale, 0 no effect, 100 complete control. The format is in vivo, Xanthium strumarium. Here is the method: as §3, §4, §5
In another experiment the test system is eastern black nightshade. Nature of the experiment: Test C postemergence eastern black nightshade. It is filed as in vivo, Solanum ptycanthum. As to conditions: 0 to 100 scale, 0 no effect, 100 complete control. In a few lines:
(§6)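 Greenhouse postemergence test: compound applied in solvent/surfactant formulation to established plants; visual scoring 0–100 against untreated controls after roughly two to three weeks (14–21 days).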

For a further experiment, the system named is hairy beggarticks. Nature of the experiment: Test C postemergence hairy beggarticks. As to conditions: 0 to 100 scale, 0 no effect, 100 complete control. It is filed as in vivo, Bidens pilosa. In a few lines: as §6
The next experiment has as its system johnsongrass. Nature of the experiment: Test C postemergence johnsongrass. It is filed as in vivo, Sorghum halepense. As to conditions: 0 to 100 scale, 0 no effect, 100 complete control. As to the method: as §3, §4, §5
The next experiment deals with lambsquarters. As to the kind of experiment: Test C postemergence lambsquarters. It is filed as in vivo, Chenopodium album. As to conditions: 0 to 100 scale, 0 no effect, 100 complete control. Here is the method: as §3, §4, §5
For a further experiment, the system named is redroot pigweed. As to the kind of experiment: Test C postemergence redroot pigweed. It is filed as in vivo, Amaranthus retroflexus. As to conditions: 0 to 100 scale, 0 no effect, 100 complete control. In a few lines: as §6

Regarding `CCN(CC)C(=O)n1oc(=O)n(-c2ccc(OC)cc2)c1=O` [Compound 1], the “Plant response rating, Barnyardgrass” value amounted to 8 in the experiment on barnyardgrass [1] (Postemergence, Rate 1000 g/ha) and 9 with barnyardgrass [1] (Pre-emergence, Rate 2000 g/ha). The “Plant response rating, Crabgrass” value with crabgrass (Postemergence, Rate 1000 g/ha) amounted to 5; in the experiment on crabgrass (Pre-emergence, Rate 2000 g/ha), 9. In addition, the “Plant response rating, Velvetleaf” value was 0 in the experiment with velvetleaf (Postemergence, Rate 1000 g/ha) and 0 in the experiment on velvetleaf (Pre-emergence, Rate 2000 g/ha).

For the compound `Cc1ccccc1-n1c(=O)on(C(=O)N(C2=CCOCC2)C(C)C)c1=O` [Compound 10], the “Plant response rating, Barnyardgrass” value in the experiment with barnyardgrass [1] (Postemergence, Rate 1000 g/ha) was determined as 9; in the experiment with barnyardgrass [1] (Pre-emergence, Rate 2000 g/ha) it was 10. The “Plant response rating, Crabgrass” value is on record as 8 in the experiment with crabgrass (Postemergence, Rate 1000 g/ha) and 9 in the experiment on crabgrass (Pre-emergence, Rate 2000 g/ha). Besides, the “Plant response rating, Velvetleaf” value with velvetleaf (Postemergence, Rate 1000 g/ha) is recorded as 4; in the experiment with velvetleaf (Pre-emergence, Rate 2000 g/ha) it was 2.

In the case of `CC(C)Oc1cc(-n2c(=O)on(C(=O)N(c3ccc(F)cc3)C(C)C)c2=O)c(Cl)cc1Cl` [Compound 43], the “Plant response rating, Barnyardgrass” value in the experiment on barnyardgrass [1] (Postemergence, Rate 1000 g/ha) is recorded as 0; in the experiment with barnyardgrass [1] (Pre-emergence, Rate 2000 g/ha), 0. Moreover, the “Plant response rating, Crabgrass” value was 0 with crabgrass (Postemergence, Rate 1000 g/ha) and 1 in the experiment with crabgrass (Pre-emergence, Rate 2000 g/ha). Moreover, the “Plant response rating, Velvetleaf” value with velvetleaf (Postemergence, Rate 1000 g/ha) turned out to be 0; in the experiment on velvetleaf (Pre-emergence, Rate 2000 g/ha), 0.

Take `CC(C)N(C(=O)n1oc(=O)n(Cc2cccs2)c1=O)c1ccc(F)cc1` [Compound 80]: the “Plant response rating Arrowleaf sida” value is recorded as 0 in the experiment with arrowleaf sida (Rate 140 g/ha), 5 in the experiment with arrowleaf sida (Rate 280 g/ha) and 30 with arrowleaf sida (Rate 1120 g/ha). The “Plant response rating, Barnyardgrass” value in the experiment with barnyardgrass [2] (Rate 140 g/ha) amounted to 0; in the experiment with barnyardgrass [2] (Rate 280 g/ha), 10; with barnyardgrass [2] (Rate 560 g/ha), 20; with barnyardgrass [2] (Rate 1120 g/ha), 20. The “Plant response rating, Cocklebur” value in the experiment on cocklebur (Rate 140 g/ha) is recorded as 5; in the experiment on cocklebur (Rate 280 g/ha), 10; in the experiment on cocklebur (Rate 560 g/ha) it was 50; in the experiment with cocklebur (Rate 1120 g/ha) it was 50. Also, the “Plant response rating E. blacknightsh” value worked out at 0 in the experiment on eastern black nightshade (Rate 140 g/ha), 5 with eastern black nightshade (Rate 280 g/ha), 50 in the experiment on eastern black nightshade (Rate 560 g/ha) and 60 with eastern black nightshade (Rate 1120 g/ha). The “Plant response rating H. beggarticks” value with hairy beggarticks (Rate 140 g/ha) is on record as 0; with hairy beggarticks (Rate 560 g/ha), 10; in the experiment on hairy beggarticks (Rate 1120 g/ha) it was 10. In addition, the “Plant response rating, Johnsongrass” value in the experiment with johnsongrass (Rate 140 g/ha), in the experiment with johnsongrass (Rate 280 g/ha), in the experiment with johnsongrass (Rate 560 g/ha) and in the experiment on johnsongrass (Rate 1120 g/ha) was 0 each time. Further, the “Plant response rating, Lambsquarters” value with lambsquarters (Rate 140 g/ha) was determined as 0; with lambsquarters (Rate 280 g/ha), 15; with lambsquarters (Rate 560 g/ha), 20; in the experiment on lambsquarters (Rate 1120 g/ha) it was 20. For the same compound, the “Plant response rating, Redroot pigweed” value was 0 in the experiment with redroot pigweed (Rate 280 g/ha), 50 with redroot pigweed (Rate 560 g/ha) and 80 in the experiment with redroot pigweed (Rate 1120 g/ha).
